Broadly, the IC50 is the concentration needed to halve the response being measured. Low readings indicate greater potency in that assay, high ones weaker potency in that assay.

Drawing on patent publication US12030878B2 (BRISTOL-MYERS SQUIBB COMPANY, priority 2017, dated 2024), this text covers IC50 for 12 compounds.

Holding throughout (type): cell-based
The target in one test is T1, human TLR7 (Homo sapiens, UniProt Q9NYK1).
T1 construct: host or cells: HEK-Blue cells
T1 sequence (Q9NYK1 27-1049): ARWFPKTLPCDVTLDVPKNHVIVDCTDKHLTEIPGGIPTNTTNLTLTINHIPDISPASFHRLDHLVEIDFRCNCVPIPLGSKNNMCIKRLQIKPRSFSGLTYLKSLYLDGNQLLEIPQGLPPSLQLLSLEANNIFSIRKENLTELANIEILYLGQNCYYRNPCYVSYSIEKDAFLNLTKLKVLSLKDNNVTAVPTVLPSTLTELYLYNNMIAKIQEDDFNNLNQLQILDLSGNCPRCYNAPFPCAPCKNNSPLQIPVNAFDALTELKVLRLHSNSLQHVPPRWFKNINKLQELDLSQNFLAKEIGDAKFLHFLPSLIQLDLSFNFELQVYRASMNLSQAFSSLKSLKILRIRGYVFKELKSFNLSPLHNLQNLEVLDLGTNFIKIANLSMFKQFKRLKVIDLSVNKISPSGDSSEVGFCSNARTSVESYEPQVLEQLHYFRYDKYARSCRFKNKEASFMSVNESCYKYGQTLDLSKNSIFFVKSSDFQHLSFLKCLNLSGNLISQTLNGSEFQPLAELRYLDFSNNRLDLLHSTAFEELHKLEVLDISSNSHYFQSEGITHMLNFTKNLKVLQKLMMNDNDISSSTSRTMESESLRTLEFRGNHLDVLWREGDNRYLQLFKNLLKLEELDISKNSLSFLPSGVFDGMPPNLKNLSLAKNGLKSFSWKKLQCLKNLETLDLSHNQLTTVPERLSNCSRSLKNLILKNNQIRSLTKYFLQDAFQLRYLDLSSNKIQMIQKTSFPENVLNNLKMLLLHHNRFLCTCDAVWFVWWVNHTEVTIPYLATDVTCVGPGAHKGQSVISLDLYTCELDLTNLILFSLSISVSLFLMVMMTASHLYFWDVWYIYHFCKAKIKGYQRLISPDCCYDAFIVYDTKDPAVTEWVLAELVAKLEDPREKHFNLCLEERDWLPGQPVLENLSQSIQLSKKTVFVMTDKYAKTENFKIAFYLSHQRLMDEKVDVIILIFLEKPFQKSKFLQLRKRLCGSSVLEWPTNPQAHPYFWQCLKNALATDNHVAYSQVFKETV
Description: TLR7 inhibition reporter assay (HEK-Blue SEAP). The conditions noted are these: HEK-Blue cells overexpressing human TLR7, stimulated with gardiquimod 7.5 μM, 22 hour incubation. In short, it runs like this:
(§1)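 Stimulation followed a 30 min room-temperature compound exposure (final 0.05 nM-50 μM): TLR7 cells with 7.5 μM gardiquimod, TLR8 with 15.9 μM R848, TLR9 with 5 nM ODN2006. After 22 h at 37 °C, secreted alkaline phosphatase was detected colorimetrically and inhibition calculated against DMSO and known-inhibitor controls.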
A general note: In a reporter assay the amount or activity of a reporter protein is the signal.

The next test deals with T2, human TLR8 (Homo sapiens, UniProt Q9NR97).
T2 construct: host or cells: HEK-Blue cells
T2 sequence (Q9NR97 27-1041): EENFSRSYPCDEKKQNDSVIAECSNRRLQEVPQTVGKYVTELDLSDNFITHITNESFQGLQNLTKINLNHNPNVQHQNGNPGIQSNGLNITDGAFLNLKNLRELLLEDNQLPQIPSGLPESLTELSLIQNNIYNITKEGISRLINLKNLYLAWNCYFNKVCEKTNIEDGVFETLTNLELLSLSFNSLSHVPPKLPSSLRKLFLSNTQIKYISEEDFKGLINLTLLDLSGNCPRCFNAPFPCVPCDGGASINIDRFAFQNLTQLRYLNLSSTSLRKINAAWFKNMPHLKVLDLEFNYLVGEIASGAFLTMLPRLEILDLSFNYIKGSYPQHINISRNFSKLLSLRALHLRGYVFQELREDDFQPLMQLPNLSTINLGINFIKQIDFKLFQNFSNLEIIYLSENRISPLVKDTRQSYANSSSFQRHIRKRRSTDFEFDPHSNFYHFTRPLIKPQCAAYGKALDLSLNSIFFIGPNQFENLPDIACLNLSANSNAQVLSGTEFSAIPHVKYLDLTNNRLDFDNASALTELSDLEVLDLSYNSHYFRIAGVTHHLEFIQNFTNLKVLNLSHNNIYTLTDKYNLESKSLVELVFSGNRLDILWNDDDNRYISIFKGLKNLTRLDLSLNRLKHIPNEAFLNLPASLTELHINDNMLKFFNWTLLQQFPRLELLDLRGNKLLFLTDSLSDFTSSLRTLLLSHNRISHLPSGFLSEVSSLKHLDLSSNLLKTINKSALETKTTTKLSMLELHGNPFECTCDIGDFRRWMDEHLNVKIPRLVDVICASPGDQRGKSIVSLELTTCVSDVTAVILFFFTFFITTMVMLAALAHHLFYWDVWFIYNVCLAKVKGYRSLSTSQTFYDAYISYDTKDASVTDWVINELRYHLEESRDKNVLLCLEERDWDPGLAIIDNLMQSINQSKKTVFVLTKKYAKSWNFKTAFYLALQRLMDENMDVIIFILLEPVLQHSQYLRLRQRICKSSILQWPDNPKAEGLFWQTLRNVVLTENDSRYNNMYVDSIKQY
Description: TLR8 inhibition reporter assay (HEK-Blue SEAP). The conditions noted are these: HEK-Blue cells overexpressing human TLR8, stimulated with R848 15.9 μM, 22 hour incubation. In short, it runs like this:
as §1

The next test deals with T3, human TLR9 (Homo sapiens, UniProt Q9NR96).
T3 construct: host or cells: HEK-Blue cells
T3 sequence (Q9NR96 26-1032): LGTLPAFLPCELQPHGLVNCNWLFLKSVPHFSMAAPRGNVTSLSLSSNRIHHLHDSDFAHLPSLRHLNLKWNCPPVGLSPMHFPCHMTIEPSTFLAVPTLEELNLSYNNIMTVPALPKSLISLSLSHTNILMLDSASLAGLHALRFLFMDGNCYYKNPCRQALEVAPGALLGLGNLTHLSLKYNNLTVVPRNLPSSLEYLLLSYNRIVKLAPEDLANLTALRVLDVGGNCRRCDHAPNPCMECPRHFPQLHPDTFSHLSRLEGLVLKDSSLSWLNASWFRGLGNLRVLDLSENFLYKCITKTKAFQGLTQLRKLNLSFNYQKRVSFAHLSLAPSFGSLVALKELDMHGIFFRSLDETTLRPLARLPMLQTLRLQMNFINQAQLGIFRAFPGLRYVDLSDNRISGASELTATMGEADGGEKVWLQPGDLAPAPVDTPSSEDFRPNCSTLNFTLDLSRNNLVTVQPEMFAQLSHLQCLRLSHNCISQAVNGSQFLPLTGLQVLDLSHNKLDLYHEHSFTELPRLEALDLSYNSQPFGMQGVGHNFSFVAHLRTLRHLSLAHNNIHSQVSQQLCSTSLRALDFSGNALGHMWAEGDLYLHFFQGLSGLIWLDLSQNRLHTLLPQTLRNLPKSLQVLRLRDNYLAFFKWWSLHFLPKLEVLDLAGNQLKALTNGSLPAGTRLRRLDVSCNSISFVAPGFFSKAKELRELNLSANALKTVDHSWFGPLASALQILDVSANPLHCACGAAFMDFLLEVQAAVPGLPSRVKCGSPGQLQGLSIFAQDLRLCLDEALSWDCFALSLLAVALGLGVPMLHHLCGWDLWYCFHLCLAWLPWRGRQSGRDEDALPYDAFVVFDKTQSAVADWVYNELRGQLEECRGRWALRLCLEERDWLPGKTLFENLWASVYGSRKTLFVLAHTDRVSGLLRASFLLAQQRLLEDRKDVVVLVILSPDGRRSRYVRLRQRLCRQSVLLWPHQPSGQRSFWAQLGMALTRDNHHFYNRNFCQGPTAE
Description: TLR9 inhibition reporter assay (HEK-Blue SEAP). The following applies: HEK-Blue cells overexpressing human TLR9, stimulated with ODN2006 5 nM, 22 hour incubation. The gist of the method:
as §1

For the compound `Cc1c(-c2[nH]c3ccc(OC4CCN(C(=O)CN(C)C)CC4)cc3c2C(C)C)cn(C)c(=O)c1C` [Example 104, 5-(5-((1-(dimethylglycyl)piperidin-4-yl)oxy)-3-isopropyl-1H-indol-2-yl)-1,3,4-trimethylpyridin-2(1H)-one], the IC50 at human TLR7 turned out to be 0.0078 µM; against human TLR8, 0.0162 µM; against human TLR9, 5.11 µM.

For the compound `Cc1c(-c2[nH]c3ccc(OC4CCN(C(=O)CN(C)C)CC4)cc3c2C(C)C)cn2cnnc2c1C` [Example 105, 1-(4-((2-(7,8-dimethyl-[1,2,4]triazolo[4,3-a]pyridin-6-yl)-3-isopropyl-1H-indol-5-yl)oxy)piperidin-1-yl)-2-(dimethylamino)ethan-1-one], the 50% inhibitory concentration (IC50) against human TLR7 was found to be 0.0029 µM; on human TLR8 it was 0.0502 µM; at human TLR9, 1.56 µM.

In the case of `Cc1c(-c2[nH]c3ccc(OCC4CCN(C(=O)CN(C)C)CC4)cc3c2C(C)C)cn2cnnc2c1C` [Example 106, 1-(4-(((2-(7,8-dimethyl-[1,2,4]triazolo[4,3-a]pyridin-6-yl)-3-isopropyl-1H-indol-5-yl)oxy)methyl)piperidin-1-yl)-2-(dimethylamino)ethan-1-one], the values for the half-maximal inhibitory concentration (IC50) at human TLR7, against human TLR8 and on human TLR9 were 0.0046 µM, 0.0578 µM and 2.11 µM, respectively.

On to `Cc1cc(-c2[nH]c3ccc(OCC4CN(C(=O)CN(C)C)C4)cc3c2C(C)C)cn2ncnc12` [Example 107, 2-(dimethylamino)-1-(3-(((3-isopropyl-2-(8-methyl-[1,2,4]triazolo[1,5-a]pyridin-6-yl)-1H-indol-5-yl)oxy)methyl)azetidin-1-yl) ethan-1-one], for which the IC50 at human TLR7 was determined as 0.0006 µM; against human TLR8, 0.0094 µM; against human TLR9, 3.16 µM.

Turning to `Cc1c(-c2[nH]c3ccc(OCC4CN(C(=O)CN(C)C)C4)cc3c2C(C)C)cn2cnnc2c1C` [Example 108, 1-(3-(((2-(7,8-dimethyl-[1,2,4]triazolo[4,3-a]pyridin-6-yl)-3-isopropyl-1H-indol-5-yl)oxy)methyl)azetidin-1-yl)-2-(dimethylamino) ethan-1-one], the results for the IC50 on human TLR7, against human TLR8 and on human TLR9 were 0.0146 µM, 0.124 µM and 0.852 µM, respectively.

As for `CNCC(=O)N1CCC(Oc2ccc3[nH]c(-c4cc(C)nc(C)c4)c(C(C)C)c3c2)CC1` [Example 109, 1-(4-((2-(2,6-dimethylpyridin-4-yl)-3-isopropyl-H-indol-5-yl)oxy)piperidin-1-yl)-2-(methylamino)ethanone], the IC50 against human TLR7 was found to be 0.0019 µM; at human TLR8, 0.01 µM; against human TLR9, 0.3 µM.

Consider `CNC(=O)CN1CCC(COc2ccc3[nH]c(-c4cc(C)nc(C)c4)c(C(C)C)c3c2)CC1` [Example 110, 2-(4-(((2-(2,6-dimethylpyridin-4-yl)-3-isopropyl-1H-indol-5-yl)oxy)methyl)piperidin-1-yl)-N-methylacetamide], for which the IC50 against human TLR7 is 0.0096 µM; on human TLR8, 0.0073 µM; on human TLR9 it was 0.492 µM.

For the compound `CNC(=O)CN1CCC(COc2ccc3[nH]c(-c4cc(C)c(=O)n(C)c4)c(C(C)C)c3c2)CC1` [Example 111, 2-(4-(((2-(1,5-dimethyl-6-oxo-1,6-dihydropyridin-3-yl)-3-isopropyl-1H-indol-5-yl)oxy)methyl)piperidin-1-yl)-N-methylacetamide], the 50% inhibitory concentration (IC50) on human TLR7 was 0.0142 µM; against human TLR8, 0.0068 µM; against human TLR9, 46.8 µM.

Turning to `CNC(=O)CN1CCC(Oc2ccc3[nH]c(-c4cc(C)c(=O)n(C)c4)c(C(C)C)c3c2)CC1` [Example 112, 2-(4-((2-(1,5-dimethyl-6-oxo-1,6-dihydropyridin-3-yl)-3-isopropyl-1H-indol-5-yl)oxy)piperidin-1-yl)-N-methylacetamide], the half-maximal inhibitory concentration (IC50) on human TLR7 is 0.0102 µM; on human TLR8 it was 0.0089 µM; at human TLR9, more than 50 µM.

As to `CNC(=O)CN1CCC(COc2ccc3[nH]c(-c4cc(C)c5ncnn5c4)c(C(C)C)c3c2)CC1` [Example 113, 2-(4-(((3-isopropyl-2-(8-methyl-[1,2,4]triazolo[1,5-a]pyridin-6-yl)-1H-indol-5-yl)oxy)methyl)piperidin-1-yl)-N-methylacetamide], the results for the IC50 against human TLR7, on human TLR8 and at human TLR9 were 0.0014 µM, 0.0076 µM and 6.69 µM, respectively.

Turning to `CNC(=O)CN1CCC(Oc2ccc3[nH]c(-c4cc(C)c5ncnn5c4)c(C(C)C)c3c2)CC1` [Example 114, 2-(4-((3-isopropyl-2-(8-methyl-[1,2,4]triazolo[1,5-a]pyridin-6-yl)-1H-indol-5-yl)oxy)piperidin-1-yl)-N-methylacetamide], the IC50 worked out at 0.001 µM against human TLR7, 0.0051 µM against human TLR8 and 31.6 µM at human TLR9.

As to `CNC(=O)CN1CCC(COc2ccc3[nH]c(-c4cn(C)c(=O)c(C)c4C)c(C(C)C)c3c2)CC1` [Example 116, 2-(4-(((3-isopropyl-2-(1,4,5-trimethyl-6-oxo-1,6-dihydropyridin-3-yl)-1H-indol-5-yl)oxy)methyl)piperidin-1-yl)-N-methylacetamide], the half-inhibitory concentration (IC50) on human TLR7 came out at 0.0161 µM; against human TLR8, 0.0053 µM; against human TLR9, 17 µM.
